Among the data in patent US20100234427A1 (priority 2006, published 2010) are IC50 values, retold here.

Counter-ions that a name gives are not always drawn.

Assay in all cases: biochemical
Test [1] concerns the target T1, dopamine (DA) reuptake in synaptosomes (Rattus norvegicus, UniProt P23977).
T1 construct: in synaptosomes as described in WO 97/16451; from tissue

In test [2] the target is T2, noradrenaline (NA) reuptake in synaptosomes (Rattus norvegicus, UniProt Q63380).
T2 construct: in synaptosomes as described in WO 97/16451; from tissue

In test [3] the target is T3, serotonine (5-HT) reuptake in synaptosomes (Rattus norvegicus, UniProt P31652).
T3 construct: in synaptosomes as described in WO 97/16451; from tissue
T3 sequence (P31652 whole entry): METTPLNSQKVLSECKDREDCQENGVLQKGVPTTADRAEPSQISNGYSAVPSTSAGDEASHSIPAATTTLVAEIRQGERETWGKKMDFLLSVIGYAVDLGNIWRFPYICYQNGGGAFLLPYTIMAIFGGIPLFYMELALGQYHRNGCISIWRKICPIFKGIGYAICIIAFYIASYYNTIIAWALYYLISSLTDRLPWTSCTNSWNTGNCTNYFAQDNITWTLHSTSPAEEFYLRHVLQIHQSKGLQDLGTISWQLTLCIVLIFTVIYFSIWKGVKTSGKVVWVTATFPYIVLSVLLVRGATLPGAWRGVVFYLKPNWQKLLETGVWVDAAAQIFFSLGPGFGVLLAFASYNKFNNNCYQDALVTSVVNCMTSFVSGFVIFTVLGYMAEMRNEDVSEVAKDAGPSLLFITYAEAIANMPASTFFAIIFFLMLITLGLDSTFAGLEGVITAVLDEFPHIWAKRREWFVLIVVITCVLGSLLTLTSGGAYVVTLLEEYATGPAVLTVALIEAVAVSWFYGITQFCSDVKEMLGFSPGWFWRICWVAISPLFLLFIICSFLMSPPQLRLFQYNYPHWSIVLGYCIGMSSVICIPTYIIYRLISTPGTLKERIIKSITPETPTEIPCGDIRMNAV

T1 sequence (P23977 whole entry): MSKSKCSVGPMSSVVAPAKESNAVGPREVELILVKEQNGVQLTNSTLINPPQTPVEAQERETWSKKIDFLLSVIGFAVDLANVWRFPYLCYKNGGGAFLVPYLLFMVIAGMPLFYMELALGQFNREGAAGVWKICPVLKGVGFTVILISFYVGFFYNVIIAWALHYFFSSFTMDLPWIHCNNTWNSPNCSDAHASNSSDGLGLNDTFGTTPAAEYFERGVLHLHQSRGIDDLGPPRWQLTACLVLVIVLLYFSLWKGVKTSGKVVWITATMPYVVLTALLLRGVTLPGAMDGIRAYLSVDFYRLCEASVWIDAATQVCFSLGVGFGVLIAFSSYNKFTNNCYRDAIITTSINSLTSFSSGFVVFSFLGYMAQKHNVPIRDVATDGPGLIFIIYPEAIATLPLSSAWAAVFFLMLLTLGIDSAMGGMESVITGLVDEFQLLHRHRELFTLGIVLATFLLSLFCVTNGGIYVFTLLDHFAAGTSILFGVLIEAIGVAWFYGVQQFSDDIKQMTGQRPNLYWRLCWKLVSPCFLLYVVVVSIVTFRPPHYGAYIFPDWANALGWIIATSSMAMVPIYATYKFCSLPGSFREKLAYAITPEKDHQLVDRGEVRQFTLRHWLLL
T2 sequence (Q63380 1-617): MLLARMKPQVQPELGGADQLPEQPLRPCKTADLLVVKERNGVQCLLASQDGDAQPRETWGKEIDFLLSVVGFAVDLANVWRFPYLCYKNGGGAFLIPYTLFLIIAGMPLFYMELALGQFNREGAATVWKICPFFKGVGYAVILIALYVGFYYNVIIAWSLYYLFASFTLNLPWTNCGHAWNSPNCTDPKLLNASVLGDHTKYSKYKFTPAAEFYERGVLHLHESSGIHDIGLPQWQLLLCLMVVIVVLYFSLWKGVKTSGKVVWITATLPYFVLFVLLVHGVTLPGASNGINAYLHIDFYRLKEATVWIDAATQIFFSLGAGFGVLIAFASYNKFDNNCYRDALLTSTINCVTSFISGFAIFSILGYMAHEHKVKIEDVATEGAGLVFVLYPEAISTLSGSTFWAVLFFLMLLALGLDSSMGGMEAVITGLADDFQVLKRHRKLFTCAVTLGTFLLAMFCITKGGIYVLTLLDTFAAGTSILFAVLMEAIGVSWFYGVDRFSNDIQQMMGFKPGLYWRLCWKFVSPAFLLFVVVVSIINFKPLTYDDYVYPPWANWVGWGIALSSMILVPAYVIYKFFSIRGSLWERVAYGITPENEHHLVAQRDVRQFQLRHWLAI

In the case of `CCC(=O)N(CC1CCN(CCc2ccc(F)cc2)CC1)c1ccccc1` [Compound 12j, N-{1-[2-(4-Fluoro-phenyl)-ethyl]-piperidin-4-ylmethyl}-N-phenyl-propionamide fumaric acid salt], the IC50 stood at 480 nM in test [1], 280 nM in test [2] and 5500 nM in test [3].

As a reminder, the IC50 is the concentration at which inhibition is half-maximal. A higher IC50 goes with weaker potency in that assay.
